{"source": "patent US8420865B2", "about": "“Phosphine compound, process for producing the same, and peroxide scavenger using the same” (Fukuoka University, priority 2008, dated 2013)", "key": {"[1]": {"test": "Oxidation of MitoDPPP with hydrogen peroxide in dimethylsulfoxide solution, fluorescence intensity over time", "conditions": "MitoDPPP 16 μM in dimethylsulfoxide, 10 mM H2O2, 10 minutes, FIG. 1", "experimental": "The time scale changes in fluorescence intensity were monitored for the oxidation with hydrogen peroxide of [3-(4-Phenoxyphenylphosphinopyrenylphosphino)propyl]triphenylphosphonium iodide [Ia] (MitoDPPP) obtained in EXAMPLE 1.\nAfter 10 mM H2O2 was added dropwise to a dimethylsulfoxide solution of MitoDPPP (16 μM), fluorescence intensities at the fluorescence wavelength of 380 nm were measured for 10 minutes."}, "[2]": {"test": "Oxidation of MitoDPPP in an aqueous solution with hydrogen peroxide and tBHP", "conditions": "FIG. 4"}, "[3]": {"system": "HepG2 cells", "test": "Loading of MitoDPPP into HepG2 cells, fluorescence microscopy, comparison with Mito Tracker Green FM", "type": "cell-based", "conditions": "fluorescence microscope, comparison/double-staining with mitochondria-selective fluorescent dye, FIG. 2", "experimental": "Loading of MitoDPPP into HepG2 cells was examined. A 20% dimethylsulfoxide solution of MitoDPPP (16 μM) was prepared and the solution was loaded into HepG2 cells for 10 minutes to stain the cells. After washing with PBS, the cells were observed under a fluorescence microscope."}, "[4]": {"system": "HepG2 cells", "test": "Loading into HepG2 cells and oxidation stimulated with tert-butoxyhydroperoxide (tBHP), fluorescence microscopy", "type": "cell-based", "conditions": "MitoDPPP 16 μM loaded 2 minutes, ten minutes after tBHP, FIG. 3", "experimental": "Loading of MitoDPPP into HepG2 cells and oxidation stimulated with tert-butoxyhydroperoxide (tBHP) were monitored. A 0.1% dimethylsulfoxide solution of MitoDPPP (16 μM) was prepared. The solution was loaded into HepG2 cells for 2 minutes to stain the cells. The cells were washed with PBS and observed under a fluorescence microscope. Next, tert-butoxyhydroperoxide (tBHP) was added to the cells. Ten minutes later, the cells were observed under the fluorescence microscope."}, "[5]": {"system": "HepG2 cells", "test": "Oxidation of MitoDPPP loaded into HepG2 cells, hydrogen peroxide compared with tBHP, microplate reader", "type": "cell-based", "conditions": "MitoDPPP 16 μM loaded 10 minutes, FIG. 4", "experimental": "The oxidation of MitoDPPP loaded into HepG2 cells was compared for hydrogen peroxide and tBHP. A 0.1% dimethylsulfoxide solution of MitoDPPP (16 μM) was prepared. The solution was loaded into HepG2 cells for 10 minutes. After washing the cells with PBS, hydrogen peroxide was added to the cells and the increase in fluorescence intensity was monitored on a microplate reader."}}}
{"compound": "[I-].c1ccc(Oc2ccc(P(CCC[P+](c3ccccc3)(c3ccccc3)c3ccccc3)c3ccc4ccc5cccc6ccc3c4c56)cc2)cc1", "note": "(stereo not drawn) [MitoDPPP]", "values": [{"measurement": "fluorescence intensity at the fluorescence wavelength of 380 nm on oxidation with hydrogen peroxide", "setting": "[1]", "value": "increase in the fluorescence intensity"}, {"measurement": "oxidation with hydrogen peroxide in an aqueous solution", "setting": "[2]; hydrogen peroxide", "value": "proceeds rapidly"}, {"measurement": "oxidation with tBHP in an aqueous solution", "setting": "[2]; tBHP", "value": "proceeds rapidly"}, {"measurement": "localization in cells", "setting": "[3]", "value": "localized in mitochondria"}, {"measurement": "brightness of stained cells after tBHP loading compared to before", "setting": "[4]", "value": "increased"}, {"measurement": "oxidation with hydrogen peroxide of MitoDPPP loaded into HepG2 cells", "setting": "[5]", "value": "not oxidized"}]}
